Source: article PMC2949283 (The Biochemical journal, 2009)
Like-named read-outs stand apart in the source and are kept apart here.

Legend:
Assay type in all cases: biochemical
Y337A HuAChE = Y337A HuAChE (Homo sapiens, UniProt P22303, Y368A); assay: HuAChE inhibition kinetics
F338A HuAChE = F338A HuAChE (Homo sapiens, UniProt P22303, F369A); assay: HuAChE inhibition kinetics
W86A HuAChE = W86A HuAChE (Homo sapiens, UniProt P22303, W117A); assay: HuAChE inhibition kinetics
Wild Type HuAChE = Wild Type HuAChE (Homo sapiens, UniProt P22303); assay: HuAChE inhibition kinetics
Y133A HuAChE = Y133A HuAChE (Homo sapiens, UniProt P22303, Y164A); assay: HuAChE inhibition kinetics; settings: for k2, carbamylation rate constant: Y133A HuAChE
E450A HuAChE = E450A HuAChE (Homo sapiens, UniProt P22303, E481A); assay: HuAChE inhibition kinetics; settings: for k2, carbamylation rate constant: E450A HuAChE
F295A HuAChE = F295A HuAChE (Homo sapiens, UniProt P22303, F326A); assay: HuAChE inhibition kinetics; settings: for k2, carbamylation rate constant: F295A HuAChE
Y72N HuAChE = Y72N HuAChE (Homo sapiens, UniProt P22303, Y103N); assay: HuAChE inhibition kinetics; settings: for k2, carbamylation rate constant: Y72N HuAChE
F295A/F338A HuAChE = F295A/F338A HuAChE (Homo sapiens, UniProt P22303, F326A/F369A); assay: HuAChE inhibition kinetics
F295L/F297V/Y337A HuAChE = F295L/F297V/Y337A HuAChE (Homo sapiens, UniProt P22303, F326L/F328V/Y368A); assay: HuAChE inhibition kinetics; settings: for k2, carbamylation rate constant: F295L/F297V/Y337A HuAChE
F297A HuAChE = F297A HuAChE (Homo sapiens, UniProt P22303, F328A); assay: HuAChE inhibition kinetics; settings: F297A HuAChE
E202A HuAChE = E202A HuAChE (Homo sapiens, UniProt P22303, E233A); assay: HuAChE inhibition kinetics; settings: for k2, carbamylation rate constant: E202A HuAChE
D74N HuAChE = D74N HuAChE (Homo sapiens, UniProt P22303, D105N); assay: HuAChE inhibition kinetics; settings: for k2, carbamylation rate constant: D74N HuAChE
F295A/F338A/V407F HuAChE = F295A/F338A/V407F HuAChE (Homo sapiens, UniProt P22303, F326A/F369A/V438F); assay: HuAChE inhibition kinetics; settings: for k2, carbamylation rate constant: F295A/F338A/V407F HuAChE
HuBChE-Wild Type = HuBChE-Wild Type (Homo sapiens, UniProt P06276); assay: HuBChE inhibition kinetics; settings: for k2, carbamylation rate constant: HuBChE-Wild Type
F295L/F297V HuAChE = F295L/F297V HuAChE (Homo sapiens, UniProt P22303, F326L/F328V); assay: HuAChE inhibition kinetics; settings: for k2, carbamylation rate constant: F295L/F297V HuAChE
[1] = biological target: Y72N/Y124Q/W286A/ F295L/F297V/Y337A/ V407F HuAChE (Homo sapiens, UniProt P22303, F326L/F328V/V438F/W317A/Y103N/Y155Q/Y368A); assay: HuAChE inhibition kinetics
Y337F HuAChE = Y337F HuAChE (Homo sapiens, UniProt P22303, Y368F); assay: HuAChE inhibition kinetics; settings: for k2, carbamylation rate constant: Y337F HuAChE
W86F HuAChE = W86F HuAChE (Homo sapiens, UniProt P22303, W117F); assay: HuAChE inhibition kinetics; settings: for k2, carbamylation rate constant: W86F HuAChE
F295A/F297A HuAChE = F295A/F297A HuAChE (Homo sapiens, UniProt P22303, F326A/F328A); assay: HuAChE inhibition kinetics
[2] = biological target: Y72N/Y124Q/W286A/ F295L/F297V/Y337A HuAChE (Homo sapiens, UniProt P22303, F326L/F328V/W317A/Y103N/Y155Q/Y368A); assay: HuAChE inhibition kinetics
E202Q HuAChE = E202Q HuAChE (Homo sapiens, UniProt P22303, E233Q); assay: HuAChE inhibition kinetics; settings: for k2, carbamylation rate constant: E202Q HuAChE
Y341A HuAChE = Y341A HuAChE (Homo sapiens, UniProt P22303, Y372A); assay: HuAChE inhibition kinetics; settings: for k2, carbamylation rate constant: Y341A HuAChE
W286A HuAChE = W286A HuAChE (Homo sapiens, UniProt P22303, W317A); assay: HuAChE inhibition kinetics
Y133F HuAChE = Y133F HuAChE (Homo sapiens, UniProt P22303, Y164F); assay: HuAChE inhibition kinetics; settings: for k2, carbamylation rate constant: Y133F HuAChE
W86A/Y337A HuAChE = W86A/Y337A HuAChE (Homo sapiens, UniProt P22303, W117A/Y368A); assay: biochemical
Y124A HuAChE = Y124A HuAChE (Homo sapiens, UniProt P22303, Y155A); assay: HuAChE inhibition kinetics
[3] = read-out: Kd, noncovalent inhibition (competition with ATC), Y337A HuAChE
[4] = read-out: Kd, noncovalent inhibition (competition with ATC), F338A HuAChE
[5] = read-out: Kd, noncovalent inhibition (competition with ATC), W86A HuAChE
[6] = read-out: Kd, noncovalent inhibition (competition with ATC), Wild Type HuAChE
[7] = Y72N/Y124Q/W286A/F295L/F297V/Y337A/V407F HuAChE
[8] = Y72N/Y124Q/W286A/F295L/F297V/Y337A HuAChE

Chain of E450A HuAChE (P22303 32-614 E481A): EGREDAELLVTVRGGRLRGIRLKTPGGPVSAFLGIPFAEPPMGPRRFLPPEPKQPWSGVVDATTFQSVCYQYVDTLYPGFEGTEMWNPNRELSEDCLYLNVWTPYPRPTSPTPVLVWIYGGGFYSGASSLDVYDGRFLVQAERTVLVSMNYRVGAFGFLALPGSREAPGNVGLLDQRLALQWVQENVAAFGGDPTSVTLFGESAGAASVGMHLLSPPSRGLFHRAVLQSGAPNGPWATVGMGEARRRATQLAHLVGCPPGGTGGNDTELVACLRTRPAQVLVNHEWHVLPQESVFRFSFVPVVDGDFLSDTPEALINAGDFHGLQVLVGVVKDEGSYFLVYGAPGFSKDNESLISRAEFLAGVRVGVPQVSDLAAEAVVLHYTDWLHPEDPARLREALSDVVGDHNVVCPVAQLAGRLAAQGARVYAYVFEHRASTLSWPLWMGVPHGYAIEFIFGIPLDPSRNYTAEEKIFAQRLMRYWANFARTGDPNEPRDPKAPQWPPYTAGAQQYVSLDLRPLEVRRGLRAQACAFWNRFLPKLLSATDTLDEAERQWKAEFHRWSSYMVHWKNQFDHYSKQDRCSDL
Chain of Wild Type HuAChE (P22303 32-614): as the sequence (P22303 32-614 E481A) above, with A450E counted along it
Chain of Y72N/Y124Q/W286A/ F295L/F297V/Y337A HuAChE (P22303 32-614 Y103N/Y155Q/W317A/F326L/F328V/Y368A): as the sequence (P22303 32-614 E481A) above, with Y72N, Y124Q, W286A, F295L, F297V, Y337A, A450E counted along it
Chain of Y72N HuAChE (P22303 32-614 Y103N): as the sequence (P22303 32-614 E481A) above, with Y72N, A450E counted along it
Chain of F295L/F297V/Y337A HuAChE (P22303 32-614 F326L/F328V/Y368A): as the sequence (P22303 32-614 E481A) above, with F295L, F297V, Y337A, A450E counted along it
Chain of D74N HuAChE (P22303 32-614 D105N): as the sequence (P22303 32-614 E481A) above, with D74N, A450E counted along it
Chain of Y133A HuAChE (P22303 32-614 Y164A): as the sequence (P22303 32-614 E481A) above, with Y133A, A450E counted along it
Chain of F338A HuAChE (P22303 32-614 F369A): as the sequence (P22303 32-614 E481A) above, with F338A, A450E counted along it
Chain of F295A/F297A HuAChE (P22303 32-614 F326A/F328A): as the sequence (P22303 32-614 E481A) above, with F295A, F297A, A450E counted along it
Chain of Y337A HuAChE (P22303 32-614 Y368A): as the sequence (P22303 32-614 E481A) above, with Y337A, A450E counted along it
Chain of F295A HuAChE (P22303 32-614 F326A): as the sequence (P22303 32-614 E481A) above, with F295A, A450E counted along it
Chain of HuBChE-Wild Type (P06276 29-602): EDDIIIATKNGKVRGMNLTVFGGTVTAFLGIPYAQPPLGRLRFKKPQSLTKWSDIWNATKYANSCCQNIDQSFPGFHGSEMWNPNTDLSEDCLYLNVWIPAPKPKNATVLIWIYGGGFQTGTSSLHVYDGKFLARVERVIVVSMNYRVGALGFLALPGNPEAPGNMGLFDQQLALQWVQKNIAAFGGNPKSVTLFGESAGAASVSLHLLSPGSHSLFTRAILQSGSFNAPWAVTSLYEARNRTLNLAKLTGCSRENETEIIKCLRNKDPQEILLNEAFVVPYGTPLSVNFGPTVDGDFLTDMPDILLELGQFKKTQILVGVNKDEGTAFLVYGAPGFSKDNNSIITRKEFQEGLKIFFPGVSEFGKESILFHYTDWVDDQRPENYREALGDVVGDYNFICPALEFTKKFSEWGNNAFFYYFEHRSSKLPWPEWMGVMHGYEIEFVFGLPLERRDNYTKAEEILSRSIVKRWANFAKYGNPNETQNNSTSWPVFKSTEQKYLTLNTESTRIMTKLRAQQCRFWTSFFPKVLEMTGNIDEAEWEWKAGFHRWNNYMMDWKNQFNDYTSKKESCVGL
Chain of Y341A HuAChE (P22303 32-614 Y372A): as the sequence (P22303 32-614 E481A) above, with Y341A, A450E counted along it
Chain of E202A HuAChE (P22303 32-614 E233A): as the sequence (P22303 32-614 E481A) above, with E202A, A450E counted along it
Chain of W86F HuAChE (P22303 32-614 W117F): as the sequence (P22303 32-614 E481A) above, with W86F, A450E counted along it
Chain of Y337F HuAChE (P22303 32-614 Y368F): as the sequence (P22303 32-614 E481A) above, with Y337F, A450E counted along it
Chain of F295A/F338A HuAChE (P22303 32-614 F326A/F369A): as the sequence (P22303 32-614 E481A) above, with F295A, F338A, A450E counted along it
Chain of W286A HuAChE (P22303 32-614 W317A): as the sequence (P22303 32-614 E481A) above, with W286A, A450E counted along it
Chain of F295A/F338A/V407F HuAChE (P22303 32-614 F326A/F369A/V438F): as the sequence (P22303 32-614 E481A) above, with F295A, F338A, V407F, A450E counted along it
Chain of Y72N/Y124Q/W286A/ F295L/F297V/Y337A/ V407F HuAChE (P22303 32-614 Y103N/Y155Q/W317A/F326L/F328V/Y368A/V438F): as the sequence (P22303 32-614 E481A) above, with Y72N, Y124Q, W286A, F295L, F297V, Y337A, V407F, A450E counted along it
Chain of W86A HuAChE (P22303 32-614 W117A): as the sequence (P22303 32-614 E481A) above, with W86A, A450E counted along it
Chain of F295L/F297V HuAChE (P22303 32-614 F326L/F328V): as the sequence (P22303 32-614 E481A) above, with F295L, F297V, A450E counted along it
Chain of Y133F HuAChE (P22303 32-614 Y164F): as the sequence (P22303 32-614 E481A) above, with Y133F, A450E counted along it
Chain of E202Q HuAChE (P22303 32-614 E233Q): as the sequence (P22303 32-614 E481A) above, with E202Q, A450E counted along it
Chain of W86A/Y337A HuAChE (P22303 32-614 W117A/Y368A): as the sequence (P22303 32-614 E481A) above, with W86A, Y337A, A450E counted along it
Chain of F297A HuAChE (P22303 32-614 F328A): as the sequence (P22303 32-614 E481A) above, with F297A, A450E counted along it
Chain of Y124A HuAChE (P22303 32-614 Y155A): as the sequence (P22303 32-614 E481A) above, with Y124A, A450E counted along it

CC(C)c1ccc(NC(=O)Oc2ccc3c(c2)C2(C)CCOC2N3C)cc1 (single isomer, unassigned; (+)) [(+)-Cymyl carbamate of physovenol, cymyl carbamate of physovenol]
Kd (Y337A HuAChE; [3]): 2200 ± 700 nM
Kd (F338A HuAChE; [4]): 57100 ± 15000 nM
Kd (W86A HuAChE; [5]): 5000 ± 1300 nM
Kd (Wild Type HuAChE; [6]): 1000 ± 200 nM

CC(C)c1ccc(NC(=O)Oc2ccc3c(c2)C2(C)CCOC2N3C)cc1 (single isomer, unassigned; (-)) [(−)-Cymyl carbamate of physovenol, cymyl carbamate of physovenol]
Kd (Y337A HuAChE; [3]): 2700 ± 1000 nM
Kd (F338A HuAChE; [4]): 40000 ± 12000 nM
Kd (W86A HuAChE; [5]): 2500 ± 200 nM
Kd (Wild Type HuAChE; [6]): 710 ± 120 nM

CN1CC[C@@]2(C)c3cc(OC(=O)Nc4ccccc4)ccc3N(C)[C@@H]12 [(−)-Phenserine, phenserine]
Kd (Y133A HuAChE): 76000 ± 15000 nM
k2, carbamylation rate constant (Y133A HuAChE): 0.4 ± 0.06 min⁻¹
Kd (E450A HuAChE): 7400 ± 1900 nM
k2, carbamylation rate constant (E450A HuAChE): 0.2 ± 0.04 min⁻¹
Kd (F295A HuAChE): 90 ± 40 nM
k2, carbamylation rate constant (F295A HuAChE): 2.1 ± 1.2 min⁻¹
Kd (Y72N HuAChE): 740 ± 190 nM
k2, carbamylation rate constant (Y72N HuAChE): 1.7 ± 0.2 min⁻¹
Kd (F295A/F338A HuAChE): 30 ± 8 nM
Kd (F295L/F297V/Y337A HuAChE): 300 ± 6 nM
k2, carbamylation rate constant (F295L/F297V/Y337A HuAChE): 0.9 ± 0.2 min⁻¹
Kd (Y337A HuAChE): 2750 ± 280 nM
k2, carbamylation rate constant (Y337A HuAChE; Y337A HuAChE): 0.8 ± 0.4 min⁻¹
k2, carbamylation rate constant (F297A HuAChE): 1.0 ± 0.5 min⁻¹
Kd (E202A HuAChE): 9100 ± 3600 nM
k2, carbamylation rate constant (E202A HuAChE): 0.2 ± 0.1 min⁻¹
Kd (D74N HuAChE): 3400 ± 610 nM
k2, carbamylation rate constant (D74N HuAChE): 0.7 ± 0.01 min⁻¹
Kd (F295A/F338A/V407F HuAChE): 27200 ± 5500 nM
k2, carbamylation rate constant (F295A/F338A/V407F HuAChE): 0.3 ± 0.1 min⁻¹
Kd (HuBChE-Wild Type): 9000 ± 3000 nM
k2, carbamylation rate constant (HuBChE-Wild Type): 0.6 ± 0.2 min⁻¹
Kd (F338A HuAChE): 41300 ± 9500 nM
k2, carbamylation rate constant (F338A HuAChE; F338A HuAChE): 0.7 ± 0.1 min⁻¹
Kd (F295L/F297V HuAChE): 800 ± 360 nM
k2, carbamylation rate constant (F295L/F297V HuAChE): 3.0 ± 1.8 min⁻¹
Kd [1]: 20300 ± 6100 nM
Kd (Y337F HuAChE): 280 ± 30 nM
k2, carbamylation rate constant (Y337F HuAChE): 0.9 ± 0.07 min⁻¹
Kd (W86F HuAChE): 870 ± 340 nM
k2, carbamylation rate constant (W86F HuAChE): 1.3 ± 0.9 min⁻¹
k2, carbamylation rate constant (F295A/F297A HuAChE): 8.5 ± 2.5 min⁻¹
Kd (F295A/F297A HuAChE; Kd, Michaelis complex (Eq. 1)): 2800 ± 800 nM
Kd (W86A HuAChE): 20000 ± 9000 nM
k2, carbamylation rate constant (W86A HuAChE; W86A HuAChE): 1.3 ± 1.0 min⁻¹
Kd [2]: 120 ± 30 nM
Kd (E202Q HuAChE): 17400 ± 3400 nM
k2, carbamylation rate constant (E202Q HuAChE): 3.2 ± 1 min⁻¹
Kd (Y341A HuAChE): 690 ± 210 nM
k2, carbamylation rate constant (Y341A HuAChE): 0.7 ± 0.3 min⁻¹
Kd (W286A HuAChE): 160 ± 30 nM
Kd (Wild Type HuAChE): 1390 ± 550 nM
k2, carbamylation rate constant (Wild Type HuAChE; Wild Type HuAChE): 0.9 ± 0.5 min⁻¹
Kd (Y133F HuAChE): 7600 ± 1900 nM
k2, carbamylation rate constant (Y133F HuAChE): 0.3 ± 0.09 min⁻¹

CNC(=O)Oc1ccc2c(c1)[C@]1(C)CCN(C)[C@@H]1N2C [(−)-Physostigmine, (−)physostigmine salicylate]
k2, carbamylation rate constant (Y133A HuAChE): 0.40 ± 0.02 min⁻¹
k2, carbamylation rate constant (E450A HuAChE): 0.15 ± 0.01 min⁻¹
k2, carbamylation rate constant (F295A HuAChE): 1.60 ± 0.50 min⁻¹
k2, carbamylation rate constant (Y72N HuAChE): 0.9 ± 0.14 min⁻¹
k2, carbamylation rate constant (F295A/F338A HuAChE; F295A/F338A HuAChE): 4.5 ± 0.9 min⁻¹
ki, bimolecular rate constant of carbamylation (F295A/F338A HuAChE; F295A/F338A HuAChE): 78±19 × 10^−4 M^−1min^−1
k2, carbamylation rate constant (F295L/F297V/Y337A HuAChE): 0.75 ± 0.20 min⁻¹
k2, carbamylation rate constant (W86A/Y337A HuAChE): 1.2 ± 0.18 min⁻¹
ki, bimolecular rate constant of carbamylation (W86A/Y337A HuAChE): 866 ±130 × 10^−4 M^−1min^−1
k2, carbamylation rate constant (Y337A HuAChE; Y337A HuAChE): 1.10 ± 0.50 min⁻¹
k2, carbamylation rate constant (F297A HuAChE): 0.60 ± 0.10 min⁻¹
k2, carbamylation rate constant (E202A HuAChE): 0.24 ± 0.05 min⁻¹
k2, carbamylation rate constant (Y124A HuAChE): 6.0 ± 1.8 min⁻¹
ki, bimolecular rate constant of carbamylation (Y124A HuAChE): 150±3 × 10^−4 M^−1min^−1
k2, carbamylation rate constant (D74N HuAChE): 2.40 ± 0.50 min⁻¹
k2, carbamylation rate constant (F295A/F338A/V407F HuAChE): 0.2 ± 0.03 min⁻¹
k2, carbamylation rate constant (HuBChE-Wild Type): 0.55 ± 0.05 min⁻¹
k2, carbamylation rate constant (F338A HuAChE; F338A HuAChE): 0.40 ± 0.20 min⁻¹
k2, carbamylation rate constant (F295L/F297V HuAChE): 2.0 ± 0.4 min⁻¹
k2, carbamylation rate constant [1, 7]: 1.25 ± 0.25 min⁻¹
ki, bimolecular rate constant of carbamylation [1, 7]: 18±3 × 10^−4 M^−1min^−1
k2, carbamylation rate constant (Y337F HuAChE): 1.90 ± 0.40 min⁻¹
k2, carbamylation rate constant (W86F HuAChE): 0.90 ± 0.20 min⁻¹
k2, carbamylation rate constant (F295A/F297A HuAChE): 0.6 ± 0.2 min⁻¹
k2, carbamylation rate constant (W86A HuAChE; W86A HuAChE): 0.80 ± 0.30 min⁻¹
k2, carbamylation rate constant [2, 8]: 0.20 ± 0.05 min⁻¹
ki, bimolecular rate constant of carbamylation [2, 8]: 34±1.2 × 10^−4 M^−1min^−1
k2, carbamylation rate constant (E202Q HuAChE): 0.80 ± 0.20 min⁻¹
k2, carbamylation rate constant (Y341A HuAChE): 1.90 ± 0.30 min⁻¹
k2, carbamylation rate constant (W286A HuAChE; W286A HuAChE): 2.70 ± 0.80 min⁻¹
ki, bimolecular rate constant of carbamylation (W286A HuAChE; W286A HuAChE): 365±40 × 10^−4 M^−1min^−1
k2, carbamylation rate constant (Wild Type HuAChE; Wild Type HuAChE): 1.2 ± 0.5 min⁻¹
k2, carbamylation rate constant (Y133F HuAChE): 0.13 ± 0.01 min⁻¹
